# pEC50: −log10 of the molar value.
# Molecular target: STING (Homo sapiens, UniProt Q86WV6, G230A/H232R/R293Q/R71H)
# Test: STING reporter assay: THP1-Dual KO-IFNAR2 cells stimulated with 2′3′cGAMP, luciferase reporter activity
# Type: cell-based
# Conditions: 15 μM 2′3′cGAMP, 24h, class symbols
# Method: STING pathway activation by the compounds described herein were measured using THP1-Dual™ cells (KO-IFNAR2).
# THP1-Dual™ KO-IFNAR2 Cells (obtained from invivogen) were maintained in RPMI, 10% FCS, 5 ml P/S, 2 mM L-glut, 10 mM Hepes, and 1 mM sodium pyruvate. Compounds were spotted in empty 384 well tissue culture plates (Greiner 781182) by Echo for a final concentration of 0.0017-100 μM. Cells were plated into the TC plates at 40 μL per well, 2×10E6 cells/mL. For activation with STING ligand, 2′3′cGAMP (MW 718.38, obtained from Invivogen), was prepared in Optimem media.
# The following solutions were prepared for each 1×384 plate: • Solution A: 2 mL Optimem with one of the following stimuli: • 60 uL of 10 mM 2′3′cGAMP ->150 μM stock • Solution B: 2 mL Optimem with 60 μL Lipofectamine 2000->Incubate 5 min at RT
# 2 mL of solution A and 2 ml Solution B was mixed and incubated for 20 min at room temperature (RT). 20 uL of transfection solution (A+B) was added on top of the plated cells, with a final 2′3′cGAMP concentration of 15 μM. The plates were then centrifuged immediately at 340 g for 1 minute, after which they were incubated at 37° C., 5% CO2, >98% humidity for 24h. Luciferase reporter activity was then measured. EC50 values were calculated by using standard methods known in the art.
# Luciferase reporter assay: 10 μL of supernatant from the assay was transferred to white 384-plate with flat bottom and squared wells. One pouch of QUANTI-Luc™ Plus was dissolved in 25 mL of water. 100 μL of QLC Stabilizer per 25 mL of QUANTI-Luc™ Plus solution was added. 50 μL of QUANTI-Luc™ Plus/QLC solution per well is then added. Luminescence is measured on a Platereader (e.g., Spectramax I3X (Molecular Devices GF3637001)).
# Luciferase reporter activity was then measured. EC50 values were calculated by using standard methods known in the art.
# STING, sequence (Q86WV6 whole entry R71H/G230A/H232R/R293Q): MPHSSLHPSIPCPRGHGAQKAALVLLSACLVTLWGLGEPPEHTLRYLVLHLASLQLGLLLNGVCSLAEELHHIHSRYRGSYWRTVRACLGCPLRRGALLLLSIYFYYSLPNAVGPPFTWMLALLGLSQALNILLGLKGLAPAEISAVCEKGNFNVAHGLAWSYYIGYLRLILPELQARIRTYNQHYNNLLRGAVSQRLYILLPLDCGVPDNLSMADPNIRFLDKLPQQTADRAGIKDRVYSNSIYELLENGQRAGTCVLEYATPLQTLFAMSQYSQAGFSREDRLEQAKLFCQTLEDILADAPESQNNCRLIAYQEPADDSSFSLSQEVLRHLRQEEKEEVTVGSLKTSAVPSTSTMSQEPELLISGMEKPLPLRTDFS
row,Structure (SMILES),pEC50
1,CCC(NC(=O)Nc1ccc2[nH]ccc2c1)c1cccc(C(F)(F)F)c1 (centres unmarked) [Compound 313],4.00 to 5.30
2,O=C(Nc1cccc(S(=O)(=O)C(F)(F)F)c1)Nc1ccc2[nH]ccc2c1 [Compound 315],4.00 to 5.30
3,O=C(NCc1cc(Cl)cc(C(F)(F)F)c1)Nc1ccc2[nH]ccc2c1 [Compound 318],4.00 to 5.30
4,O=C(Nc1cccc(OC(F)F)c1)Nc1ccc2[nH]ccc2c1 [Compound 343],4.00 to 5.30
5,O=C(Nc1ccc(C(F)(F)F)cc1)Nc1ccc2[nH]cc(-c3cn[nH]c3)c2c1 [Compound 345],4.00 to 5.30
6,N#Cc1cc2cc(NC(=O)Nc3ccc(C(F)(F)F)cc3)ccc2[nH]1 [Compound 370],4.00 to 5.30
7,O=C(Nc1ccc(C(F)(F)F)cc1)Nc1ccc2[nH]cc(NC(=O)Nc3ccc(C(F)(F)F)cc3)c2c1 [Compound 371],6.00 to 6.70
8,O=C(Nc1cccc(C(F)(F)F)c1)Nc1ccc2[nH]ccc2c1 [Compound 374],4.00 to 5.30
9,CN(C(=O)Nc1ccc(C(F)(F)F)cc1)c1ccc2[nH]ccc2c1 [Compound 376],4.00 to 5.30
10,CCCCc1ccc(NC(=O)Nc2ccc3[nH]ccc3c2)cc1 [Compound 378],5.30 to 6.00
11,FC(F)(F)c1ccc2ccc(Nc3ccc4cc[nH]c4c3)nc2c1 [Compound 381],6.00 to 6.70
12,N#Cc1cc(Nc2ccc3ccc(C(F)(F)F)cc3n2)cc2[nH]ccc12 [Compound 384],5.30 to 6.00
13,CCc1ccc2ccc(Nc3ccc4cc[nH]c4c3)nc2c1 [Compound 385],5.30 to 6.00
14,c1cc2ccc(Nc3ccc4ccc(C5CCC5)cc4n3)cc2[nH]1 [Compound 386],5.30 to 6.00
15,Cc1cc(Nc2ccc3ccc(Cl)cc3n2)cc2[nH]ccc12 [Compound 387],5.30 to 6.00
16,FC(F)(F)c1ccc2cnc(Nc3ccc4cc[nH]c4c3)cc2c1 [Compound 388],5.30 to 6.00
17,"c1cc2ccc(Nc3ccc4ccc(C5CCCCC5)cc4n3)cc2[nH]1 [Compound 389, 7-cyclohexyl-N-(1H-indol-6-yl)quinolin-2-amine]",5.30 to 6.00
18,"COc1nc(Nc2ccc3cc[nH]c3c2)ccc1F [Compound 391, N-(5-fluoro-6-methoxypyridin-2-yl)-1H-indol-6-amine]",4.00 to 5.30

# Same assay, conditions: 15 μM 2′3′cGAMP, 24h, numeric bounds
row,Structure (SMILES),pEC50
1,CC1(CNC(=O)Nc2ccc3[nH]ccc3c2)CCC(F)(F)CC1 [Compound 311],< 4.52
2,CN(C)S(=O)(=O)c1cccc(NC(=O)Nc2ccc3[nH]ccc3c2)c1 [Compound 312],< 4.52
3,O=C(NCCc1c[nH]c2cc(OC(F)(F)F)ccc12)Nc1ccc2[nH]ccc2c1 [Compound 314],< 4.52
4,CC(C)(C)OC(=O)N1CC(CCNC(=O)Nc2ccc3[nH]ccc3c2)C1 [Compound 316],< 4.52
5,O=C(Nc1ccc2[nH]ccc2c1)NC1CCc2ccc(C(F)(F)F)cc21 (centres unmarked) [Compound 317],< 4.52
6,O=C(NCc1ccc(C(F)(F)F)c(Cl)c1)Nc1ccc2[nH]ccc2c1 [Compound 319],< 4.52
7,O=C(NCc1ccc(Cl)c(C(F)(F)F)c1)Nc1ccc2[nH]ccc2c1 [Compound 320],< 4.52
8,O=C(NCCc1ccc(OC(F)(F)F)cc1)Nc1ccc2[nH]ccc2c1 [Compound 321],< 4.52
9,Cc1cc(CNC(=O)Nc2ccc3[nH]ccc3c2)nn1C [Compound 322],< 4.52
10,O=C(NCCc1c(F)cccc1Cl)Nc1ccc2[nH]ccc2c1 [Compound 323],< 4.52
11,Cc1ccccc1CCNC(=O)Nc1ccc2[nH]ccc2c1 [Compound 324],< 4.52
12,CC(CNC(=O)Nc1ccc2[nH]ccc2c1)c1ccccc1 (centres unmarked) [Compound 325],< 4.52
13,O=C(Nc1ccc2[nH]ccc2c1)N[C@@H]1C[C@H]1c1ccccc1 [Compound 326],< 4.52
14,O=C(NCCc1ccccc1)Nc1ccc2[nH]ccc2c1 [Compound 327],< 4.52
15,CCCCCNC(=O)Nc1ccc2[nH]ccc2c1 [Compound 328],< 4.52
16,CC(C)CCNC(=O)Nc1ccc2[nH]ccc2c1 [Compound 329],< 4.52
17,O=C(NCCC1CC1)Nc1ccc2[nH]ccc2c1 [Compound 330],< 4.52
18,O=C(NCC1CCC1)Nc1ccc2[nH]ccc2c1 [Compound 331],< 4.52
19,CC(C)(C)n1cc(NC(=O)Nc2ccc3[nH]ccc3c2)cn1 [Compound 332],< 4.52
20,O=C(NCc1cnccn1)Nc1ccc2[nH]ccc2c1 [Compound 333],< 4.52

row,Structure (SMILES),pEC50
1,O=C(Nc1ccc2[nH]ccc2c1)Nc1ccon1 [Compound 334],< 4.52
2,Cc1cc(C)nc(NC(=O)Nc2ccc3[nH]ccc3c2)c1 [Compound 335],< 4.52
3,O=C(NCc1ccc(F)c(F)c1)Nc1ccc2[nH]ccc2c1 [Compound 336],< 4.52
4,Cc1ccc(CNC(=O)Nc2ccc3[nH]ccc3c2)cc1C [Compound 337],< 4.52
5,Cc1ccccc1CNC(=O)Nc1ccc2[nH]ccc2c1 [Compound 338],< 4.52
6,Cc1ccc(CNC(=O)Nc2ccc3[nH]ccc3c2)cc1 [Compound 339],< 4.52
7,Cc1cccc(CNC(=O)Nc2ccc3[nH]ccc3c2)c1 [Compound 340],< 4.52
8,O=C(Nc1ccc(Cl)c(F)c1)Nc1ccc2[nH]ccc2c1 [Compound 341],< 4.52
9,O=C(Nc1ccc(F)c(F)c1)Nc1ccc2[nH]ccc2c1 [Compound 342],< 4.52
10,O=C(Nc1cccc(S(F)(F)(F)(F)F)c1)Nc1ccc2[nH]ccc2c1 [Compound 346],< 4.52
11,CC(C)c1ccc(NC(=O)Nc2ccc3[nH]ccc3c2)cc1 [Compound 347],< 4.52
12,CCCCCCCCCCCCCCCCNC(=O)Nc1ccc2[nH]ccc2c1 [Compound 348],< 4.52
13,O=C(NCCSCc1c(Cl)cccc1Cl)Nc1ccc2[nH]ccc2c1 [Compound 349],< 4.52
14,O=C(NCc1csc(-c2ccc(Cl)cc2)n1)Nc1ccc2[nH]ccc2c1 [Compound 350],< 4.52
15,CCCCCCCCCCCCCCNC(=O)Nc1ccc2[nH]ccc2c1 [Compound 351],< 4.52
16,CCCCCCCCc1ccc(NC(=O)Nc2ccc3[nH]ccc3c2)cc1 [Compound 352],< 4.52
17,O=C(NCCc1ccc(Br)cc1)Nc1ccc2[nH]ccc2c1 [Compound 353],< 4.52
18,O=C(NCCc1cccc(Cl)c1)Nc1ccc2[nH]ccc2c1 [Compound 354],< 4.52
19,O=C(NCCc1ccccc1Cl)Nc1ccc2[nH]ccc2c1 [Compound 355],< 4.52
20,Cc1ccc(CCNC(=O)Nc2ccc3[nH]ccc3c2)cc1C [Compound 356],< 4.52

row,Structure (SMILES),pEC50
1,O=C(Nc1ccc2[nH]ccc2c1)NC1Cc2ccccc2C1 [Compound 357],< 4.52
2,CC[C@H](NC(=O)Nc1ccc2[nH]ccc2c1)c1ccccc1 [Compound 358],< 4.52
3,O=C(Nc1ccc2c(c1)CCC2)Nc1ccc2[nH]ccc2c1 [Compound 359],< 4.52
4,Cc1cc(NC(=O)Nc2ccc3[nH]ccc3c2)ccc1C#N [Compound 360],< 4.52
5,N#Cc1ccc(NC(=O)Nc2ccc3[nH]ccc3c2)cc1 [Compound 361],< 4.52
6,O=C(Nc1ccc2[nH]ccc2c1)Nc1ccccc1Cl [Compound 362],< 4.52
7,"CCc1ccccc1NC(=O)Nc1ccc2[nH]ccc2c1 [Compound 363, 1-(2-ethylphenyl)-3-(1H-indol-5-yl)urea]",< 4.52
8,O=C(Nc1ccc2[nH]ccc2c1)Nc1ccccc1F [Compound 364],< 4.52
9,Cc1ccccc1NC(=O)Nc1ccc2[nH]ccc2c1 [Compound 365],< 4.52
10,Cn1cc(-c2c[nH]c3ccc(NC(=O)Nc4ccc(C(F)(F)F)cc4)cc23)cn1 [Compound 366],< 4.52
11,CCCCC1CCC(NC(=O)Nc2ccc3[nH]c(Cl)cc3c2)CC1 (centres unmarked) [Compound 372],< 4.00
12,N#Cc1c[nH]c2ccc(NC(=O)Nc3ccc(C(F)(F)F)cc3)cc12 [Compound 373],< 4.00
13,CCCCC1CCC(NC(=O)Nc2ccc3[nH]c(C)cc3c2)CC1 (centres unmarked) [Compound 375],< 4.00
14,Cn1ccc2cc(NC(=O)Nc3ccc(C(F)(F)F)cc3)ccc21 [Compound 377],< 4.00
15,CCCCC1CCC(NC(=O)Nc2ccc3[nH]ccc3c2)CC1 (centres unmarked) [Compound 379],< 5.30
16,"CCc1ccnc(Nc2ccc3cc[nH]c3c2)c1 [Compound 392, N-(4-ethylpyridin-2-yl)-1H-indol-6-amine]",< 4.52
17,"CC(C)c1ccnc(Nc2ccc3cc[nH]c3c2)c1 [Compound 393, N-(4-isopropylpyridin-2-yl)-1H-indol-6-amine]",< 4.52
18,"c1cnc(Nc2ccc3cc[nH]c3c2)c(C2CC2)c1 [Compound 394, N-(3-cyclopropylpyridin-2-yl)-1H-indol-6-amine]",< 4.52
19,"CC(O)c1ccnc(Nc2ccc3cc[nH]c3c2)c1 (centres unmarked) [Compound 395, 1-(2-((1H-indol-6-yl)amino)pyridin-4-yl)ethanol]",< 4.52
